Where “and” joins values, the source holds several entries; their conditions need not be identical. Identical values can stand only once. Toxic doses and inconclusive results are not listed. No stated cut-off is given here; in the data, active means T/C of 150% or more; inactive means T/C below 125%.
Test system: L1210 leukemia ip in BDF1 mice, survival T/C
Test: NCI In Vivo Anticancer Drug Screen. Data for tumor model L1210 Leukemia (intraperitoneal) in B6D2F1 (BDF1) mice
Settings: endpoint: mean survival time, higher = longer survival
Procedure, shortened: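 Tumor cells were implanted, animals were treated, and survival was followed. The result divides the treated measurement by the vehicle-control measurement.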

[1] = dose: 100.0 mg/kg/injection, schedule: Q01DX009 (ip), vehicle: Klucel (hydroxypropylcellulose) (HPC)
[2] = dose: 200.0 mg/kg/injection, schedule: Q01DX009 (ip), vehicle: Klucel (hydroxypropylcellulose) (HPC)
[3] = dose: 100.0 mg/kg/injection, schedule: Q01DX001 (ip), vehicle: saline
[4] = dose: 200.0 mg/kg/injection, schedule: Q01DX001 (ip), vehicle: saline
[5] = dose: 400.0 mg/kg/injection, schedule: Q01DX001 (ip), vehicle: saline
[6] = dose: 100.0 mg/kg/injection, schedule: Q04DX002 (ip), vehicle: Klucel (hydroxypropylcellulose) (HPC)
[7] = dose: 200.0 mg/kg/injection, schedule: Q04DX002 (ip), vehicle: Klucel (hydroxypropylcellulose) (HPC)
[8] = dose: 400.0 mg/kg/injection, schedule: Q04DX002 (ip), vehicle: Klucel (hydroxypropylcellulose) (HPC)
[9] = dose: 1.56 mg/kg/injection, schedule: Q04DX003 (ip), vehicle: saline with Tween-80
[10] = dose: 6.25 mg/kg/injection, schedule: Q04DX003 (ip), vehicle: saline with Tween-80
[11] = dose: 100.0 mg/kg/injection, schedule: Q01DX009 (ip), vehicle: saline
[12] = dose: 200.0 mg/kg/injection, schedule: Q01DX009 (ip), vehicle: saline
[13] = dose: 100.0 mg/kg/injection, schedule: Q04DX003 (ip), vehicle: Klucel (hydroxypropylcellulose) (HPC)
[14] = dose: 200.0 mg/kg/injection, schedule: Q04DX003 (ip), vehicle: Klucel (hydroxypropylcellulose) (HPC)
[15] = dose: 400.0 mg/kg/injection, schedule: Q01DX009 (ip), vehicle: Klucel (hydroxypropylcellulose) (HPC)
[16] = dose: 400.0 mg/kg/injection, schedule: Q04DX003 (ip), vehicle: Klucel (hydroxypropylcellulose) (HPC)

Measured: T/C

CCCCCC#CC(O)(C(=O)OC)c1ccccc1 (stereo not given)
inactive: dose: 100.0 mg/kg/injection, schedule: Q01DX001 (ip), vehicle: other 107 % of control | dose: 200.0 mg/kg/injection, schedule: Q01DX001 (ip), vehicle: other 107 % of control | dose: 400.0 mg/kg/injection, schedule: Q01DX001 (ip), vehicle: other 100 % of control

CCCC(C)OS(=O)(=O)c1ccc(N)cc1 (stereo not given)
inactive: [1] 113 % of control | [2] 95 % of control

CCNC(=O)CCCC(=O)OC
inactive: [3] 94 % of control | [4] 103 % of control | [5] 97 % of control

COC1OC(CBr)C(OS(C)(=O)=O)C(OC(=O)c2ccccc2)C1OC(=O)c1ccccc1 (stereo not given)
inactive: [6] 103 % of control | [7] 91 % of control | [8] 94 % of control

CC(=O)Nc1ccc(N=NN(C)C)cc1
inactive: [9] 97 % of control and 101 % of control | dose: 3.12 mg/kg/injection, schedule: Q01DX001 (ip), vehicle: saline with Tween-80 101 % of control | dose: 3.12 mg/kg/injection, schedule: Q04DX003 (ip), vehicle: saline with Tween-80 97 % of control and 98 % of control | dose: 6.25 mg/kg/injection, schedule: Q01DX001 (ip), vehicle: saline with Tween-80 107 % of control | [10] 101 % of control and 104 % of control | dose: 12.5 mg/kg/injection, schedule: Q01DX001 (ip), vehicle: saline with Tween-80 108 % of control | dose: 12.5 mg/kg/injection, schedule: Q04DX003 (ip), vehicle: saline with Tween-80 100 % of control and 102 % of control | dose: 25.0 mg/kg/injection, schedule: Q01DX001 (ip), vehicle: saline with Tween-80 113 % of control

C=C(Cl)CSc1ncnc2nc[nH]c12
inactive: dose: 75.0 mg/kg/injection, schedule: Q01DX001 (ip), vehicle: saline 98 % of control

c1ccc(N2CCNCC2)nc1
inactive: dose: 5.0 mg/kg/injection, schedule: Q01DX009 (ip), vehicle: acetone 100 % of control | dose: 10.0 mg/kg/injection, schedule: Q01DX001 (ip), vehicle: acetone 96 % of control | dose: 10.0 mg/kg/injection, schedule: Q01DX009 (ip), vehicle: acetone 97 % of control | dose: 10.0 mg/kg/injection, schedule: Q04DX003 (ip), vehicle: saline 109 % of control | dose: 20.0 mg/kg/injection, schedule: Q01DX001 (ip), vehicle: acetone 95 % of control | dose: 20.0 mg/kg/injection, schedule: Q01DX009 (ip), vehicle: acetone 95 % of control | dose: 20.0 mg/kg/injection, schedule: Q04DX003 (ip), vehicle: saline 98 % of control | dose: 40.0 mg/kg/injection, schedule: Q01DX001 (ip), vehicle: acetone 106 % of control | dose: 40.0 mg/kg/injection, schedule: Q04DX003 (ip), vehicle: saline 101 % of control

CC(=O)NC(C)C1(O)CCCCC1 (stereo not given)
inactive: [11] 101 % of control | [12] 96 % of control | dose: 400.0 mg/kg/injection, schedule: Q01DX009 (ip), vehicle: saline 98 % of control

COc1ccc(NC(=S)Nc2ccc(OC)cc2)cc1
inactive: [1] 101 % of control | [13] 103 % of control | [2] 105 % of control | [14] 103 % of control | [15] 92 % of control | [16] 94 % of control

CCCCCCCCCCCCOc1ccccc1C=O
inactive: [13] 101 % of control | [14] 106 % of control | [16] 96 % of control

O=C(O)c1cccc(Cl)c1
inactive: [1] 100 % of control | [2] 100 % of control | [15] 86 % of control

Clc1ccc(Oc2nc3c(Cl)cccc3s2)cc1Cl
inactive: [6] 101 % of control | [7] 101 % of control | [8] 97 % of control

CCCCCOC(=O)CCCc1ccc(N(CCCl)CCCl)cc1
inactive: dose: 50.0 mg/kg/injection, schedule: Q01DX009 (ip), vehicle: saline 123 % of control | [11] 86 % of control

CC(C)(C)c1cc([N+](=O)[O-])cc([N+](=O)[O-])c1O
inactive: dose: 1.56 mg/kg/injection, schedule: Q01DX009 (ip), vehicle: saline with Tween-80 93 % of control | [9] 100 % of control | dose: 3.13 mg/kg/injection, schedule: Q01DX009 (ip), vehicle: saline with Tween-80 93 % of control | dose: 3.13 mg/kg/injection, schedule: Q04DX003 (ip), vehicle: saline with Tween-80 96 % of control | dose: 6.25 mg/kg/injection, schedule: Q01DX009 (ip), vehicle: saline with Tween-80 96 % of control | [10] 107 % of control

CCCCCCCCCCCCOS(=O)(=O)O
inactive: [3] 98 % of control | [4] 95 % of control | [5] 98 % of control

O=C1CC2(C(=O)N1c1ccccc1)C1C(=O)N(c3ccccc3)C(=O)C1C1C3C(=CCC4C(=O)N(c5ccccc5)C(=O)C43)C=CN12 (stereo not given)
inactive: dose: 100.0 mg/kg/injection, schedule: Q04DX002 (ip), vehicle: saline with Tween-80 105 % of control | dose: 200.0 mg/kg/injection, schedule: Q04DX002 (ip), vehicle: saline with Tween-80 98 % of control | dose: 400.0 mg/kg/injection, schedule: Q04DX002 (ip), vehicle: saline with Tween-80 102 % of control

NC(=O)c1ccc[n+](Cc2ccccc2)c1
inactive: dose: 37.5 mg/kg/injection, schedule: Q04DX003 (ip), vehicle: saline 97 % of control | dose: 75.0 mg/kg/injection, schedule: Q04DX003 (ip), vehicle: saline 94 % of control | [11] 100 % of control | dose: 150.0 mg/kg/injection, schedule: Q04DX003 (ip), vehicle: saline 95 % of control | [12] 107 % of control

CC(=O)c1ccc(S(=O)(=O)c2ccccc2)cc1
inactive: dose: 50.0 mg/kg/injection, schedule: Q01DX001 (ip), vehicle: carboxymethylcellulose (CMC) 93 % of control | dose: 100.0 mg/kg/injection, schedule: Q01DX001 (ip), vehicle: carboxymethylcellulose (CMC) 93 % of control | dose: 100.0 mg/kg/injection, schedule: Q04DX003 (ip), vehicle: saline with Tween-80 96 % of control | dose: 200.0 mg/kg/injection, schedule: Q01DX001 (ip), vehicle: carboxymethylcellulose (CMC) 101 % of control | dose: 200.0 mg/kg/injection, schedule: Q04DX003 (ip), vehicle: saline with Tween-80 91 % of control | dose: 400.0 mg/kg/injection, schedule: Q01DX001 (ip), vehicle: carboxymethylcellulose (CMC) 95 % of control | dose: 400.0 mg/kg/injection, schedule: Q04DX003 (ip), vehicle: saline with Tween-80 107 % of control

O=C1C=CC(=O)N1C(c1ccccc1)c1ccccc1
inactive: dose: 12.5 mg/kg/injection, schedule: Q01DX009 (ip), vehicle: Klucel (hydroxypropylcellulose) (HPC) 102 % of control | dose: 25.0 mg/kg/injection, schedule: Q01DX009 (ip), vehicle: Klucel (hydroxypropylcellulose) (HPC) 102 % of control | dose: 50.0 mg/kg/injection, schedule: Q01DX009 (ip), vehicle: Klucel (hydroxypropylcellulose) (HPC) 102 % of control | dose: 50.0 mg/kg/injection, schedule: Q04DX002 (ip), vehicle: Klucel (hydroxypropylcellulose) (HPC) 94 % of control | [6] 88 % of control | [7] 101 % of control and 116 % of control and 91 % of control | [8] 91 % of control
